What was measured:
[1] = tested on: Human immunodeficiency virus; test: microbe, parasite or virus in culture; type: functional, organism-based; conditions: Human immunodeficiency virus 1, 2C4
Description: Reactivation of HIV latency infected in human 2C4 cells in presence of 0.1 % NHS by luciferase reporter gene assay

[2] = tested on: Human immunodeficiency virus; test: microbe, parasite or virus in culture; type: functional, organism-based; conditions: Human immunodeficiency virus 1, 2C4; remark: listed apart in the source
Histone deacetylase 1 = Histone deacetylase 1 (Homo sapiens, UniProt Q13547)
Description: Inhibition of HDAC1 (unknown origin)

[3] = target: T1, Protein deacetylase HDAC6 (Homo sapiens, UniProt Q9UBN7); type: ADME
T1 sequence (Q9UBN7 whole entry): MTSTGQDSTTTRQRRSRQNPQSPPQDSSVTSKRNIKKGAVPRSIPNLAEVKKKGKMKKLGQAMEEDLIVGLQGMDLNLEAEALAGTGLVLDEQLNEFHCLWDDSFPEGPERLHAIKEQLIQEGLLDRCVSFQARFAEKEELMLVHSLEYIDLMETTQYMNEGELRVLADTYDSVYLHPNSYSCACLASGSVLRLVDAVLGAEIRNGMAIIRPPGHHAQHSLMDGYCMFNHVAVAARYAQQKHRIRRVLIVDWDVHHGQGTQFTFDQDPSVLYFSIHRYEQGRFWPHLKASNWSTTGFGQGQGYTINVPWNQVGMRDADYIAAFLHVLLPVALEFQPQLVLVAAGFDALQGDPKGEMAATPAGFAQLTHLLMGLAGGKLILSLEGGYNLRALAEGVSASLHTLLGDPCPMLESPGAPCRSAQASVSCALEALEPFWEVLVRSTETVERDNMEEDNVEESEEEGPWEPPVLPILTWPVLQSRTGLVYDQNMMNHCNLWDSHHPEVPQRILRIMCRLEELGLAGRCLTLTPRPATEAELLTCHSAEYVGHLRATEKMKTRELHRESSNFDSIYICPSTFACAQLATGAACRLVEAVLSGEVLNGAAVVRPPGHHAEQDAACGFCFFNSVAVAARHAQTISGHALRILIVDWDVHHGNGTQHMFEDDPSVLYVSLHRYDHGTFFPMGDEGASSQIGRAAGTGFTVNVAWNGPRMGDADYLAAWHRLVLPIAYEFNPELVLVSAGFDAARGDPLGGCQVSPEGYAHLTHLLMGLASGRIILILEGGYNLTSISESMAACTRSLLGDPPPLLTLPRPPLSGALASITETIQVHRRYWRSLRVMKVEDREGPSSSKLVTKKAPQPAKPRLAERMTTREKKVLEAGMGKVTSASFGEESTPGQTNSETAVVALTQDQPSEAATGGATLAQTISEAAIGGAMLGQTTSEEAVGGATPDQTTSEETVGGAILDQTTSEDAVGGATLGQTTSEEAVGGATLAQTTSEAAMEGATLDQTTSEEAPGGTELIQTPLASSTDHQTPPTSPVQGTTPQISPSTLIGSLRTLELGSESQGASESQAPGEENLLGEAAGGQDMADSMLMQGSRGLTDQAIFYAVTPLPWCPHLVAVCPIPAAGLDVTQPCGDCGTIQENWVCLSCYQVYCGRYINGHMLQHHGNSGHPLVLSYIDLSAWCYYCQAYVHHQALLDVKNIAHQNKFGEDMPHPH
Description: Inhibition of HDAC6 (unknown origin)

Histone deacetylase 8 = target: T2, Histone deacetylase 8 (Homo sapiens, UniProt Q9BY41); type: ADME
T2 sequence (Q9BY41 whole entry): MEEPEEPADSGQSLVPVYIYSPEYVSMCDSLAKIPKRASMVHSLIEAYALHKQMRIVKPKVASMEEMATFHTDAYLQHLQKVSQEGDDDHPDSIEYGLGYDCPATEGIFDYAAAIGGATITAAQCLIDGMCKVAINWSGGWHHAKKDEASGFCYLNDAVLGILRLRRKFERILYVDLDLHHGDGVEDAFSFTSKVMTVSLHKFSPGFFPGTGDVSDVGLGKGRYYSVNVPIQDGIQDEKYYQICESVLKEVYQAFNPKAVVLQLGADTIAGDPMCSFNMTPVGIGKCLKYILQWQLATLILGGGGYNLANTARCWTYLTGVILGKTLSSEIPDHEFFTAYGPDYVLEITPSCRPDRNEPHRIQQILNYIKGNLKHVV
Description: Inhibition of HDAC8 (unknown origin)

[4] = AUC in Wistar Han rat at 10 mg/kg, po; type: ADME, organism-based; conditions: in vivo
[5] = Cmax in Wistar Han rat at 10 mg/kg, po; type: ADME, organism-based; parameters: dose 10 mg/kg, route oral; conditions: in vivo
[6] = Half life in Wistar Han rat at 2 mg/kg, iv or 10 mg/kg, po; type: ADME, organism-based; conditions: in vivo
[7] = Clearance in Wistar Han rat at 2 mg/kg, iv or 10 mg/kg, po; type: ADME, organism-based; conditions: in vivo
[8] = Oral bioavailability in Wistar Han rat at 10 mg/kg; type: ADME, organism-based; conditions: in vivo
Histone deacetylase 2 = Histone deacetylase 2 (Homo sapiens, UniProt Q92769)
Histone deacetylase 2, sequence (Q92769 whole entry): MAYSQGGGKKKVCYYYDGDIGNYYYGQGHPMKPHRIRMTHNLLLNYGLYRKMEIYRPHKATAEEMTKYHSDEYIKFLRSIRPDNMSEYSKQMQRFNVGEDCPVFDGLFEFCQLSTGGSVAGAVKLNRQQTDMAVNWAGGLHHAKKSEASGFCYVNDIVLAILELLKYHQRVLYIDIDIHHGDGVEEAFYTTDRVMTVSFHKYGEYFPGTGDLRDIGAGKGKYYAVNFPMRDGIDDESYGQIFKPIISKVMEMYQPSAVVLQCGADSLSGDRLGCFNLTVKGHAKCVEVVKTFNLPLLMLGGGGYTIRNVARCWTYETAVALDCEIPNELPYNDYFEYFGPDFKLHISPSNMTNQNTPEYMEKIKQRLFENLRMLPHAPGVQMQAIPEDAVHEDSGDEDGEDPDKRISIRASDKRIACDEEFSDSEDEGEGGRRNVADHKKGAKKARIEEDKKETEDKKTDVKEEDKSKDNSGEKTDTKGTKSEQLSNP
Description: Inhibition of HDAC2 (unknown origin)

Histone deacetylase 1, sequence (Q13547 whole entry): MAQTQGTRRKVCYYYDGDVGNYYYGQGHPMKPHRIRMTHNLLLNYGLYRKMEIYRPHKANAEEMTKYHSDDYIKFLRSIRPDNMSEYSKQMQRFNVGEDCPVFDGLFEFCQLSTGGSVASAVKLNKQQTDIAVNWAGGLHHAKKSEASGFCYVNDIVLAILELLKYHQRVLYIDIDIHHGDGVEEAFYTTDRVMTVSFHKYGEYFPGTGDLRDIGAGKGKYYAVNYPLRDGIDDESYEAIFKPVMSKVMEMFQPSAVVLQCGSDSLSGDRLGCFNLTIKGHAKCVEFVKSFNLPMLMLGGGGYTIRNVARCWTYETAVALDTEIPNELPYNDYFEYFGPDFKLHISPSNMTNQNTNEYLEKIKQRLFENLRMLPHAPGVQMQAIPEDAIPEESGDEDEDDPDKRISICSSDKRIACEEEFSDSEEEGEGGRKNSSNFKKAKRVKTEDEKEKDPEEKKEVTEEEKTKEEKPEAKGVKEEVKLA

SMILES | EC50 [1] | EC50 [2] | further results
CCC(=O)CCCCC[C@H](NC(=O)[C@H]1C[C@]12CCN(C)C2)c1ncc(-c2cc3ccccc3nc2OC)[nH]1 | 72 nM | 232 nM | 
CCC(=O)CCCCC[C@H](NC(=O)CC1CC2(C1)CN(C)C2)c1ncc(-c2cc3ccccc3nc2OC)[nH]1 | 130 nM | 810 nM | IC50 (Histone deacetylase 1): 1 nM
CCC(=O)CCCCC[C@H](NC(=O)[C@H]1CC12CCN(C)CC2)c1nnc(-c2cc3ccccc3nc2OC)[nH]1 | 1620 nM | 2580 nM | IC50 [3]: 92 nM; IC50 (Histone deacetylase 8): 1930 nM
CCC(=O)CCCCC[C@H](NC(=O)[C@H]1CC12CCN(C(C)C)CC2)c1ncc(-c2cc3ccccc3nc2OC)[nH]1 | 32 nM | 57 nM | 
CCC(=O)CCCCC[C@H](NC(=O)[C@H]1CC12CCOCC2)c1ncc(-c2cc3ccccc3nc2OC)[nH]1 | 234 nM | 1790 nM | 
CCC(=O)CCCCC[C@H](NC(=O)[C@@H]1CC12CCCN(C)C2)c1ncc(-c2cc3ccccc3nc2OC)[nH]1 (some centres not stated) | 257 nM | 1010 nM | 
CCC(=O)CCCCC[C@H](NC(=O)[C@@H]1C[C@@]12CCN(C)C2)c1ncc(-c2cc3ccccc3nc2OC)[nH]1 | 309 nM | 1150 nM | 
CCC(=O)CCCCC[C@H](NC(=O)[C@H]1CC12CCN(C(C)C)CC2)c1ncc(-c2cc3ccccc3nc2OC)o1 | 161 nM | 309 nM | IC50 (Histone deacetylase 1): 3.5 nM
CCC(=O)CCCCC[C@H](NC(=O)C1CN(C)C1)c1ncc(-c2cc3ccccc3nc2OC)[nH]1 | 110 nM | 477 nM | 
CCC(=O)CCCCC[C@H](NC(=O)C1CCC2(CC1)CN(C)C2)c1ncc(-c2cc3ccccc3nc2OC)[nH]1 | 85 nM | 687 nM | 
CCC(=O)CCCCC[C@H](NC(=O)[C@@H]1CCC12CCN(CC)CC2)c1ncc(-c2cc3ccccc3nc2OC)[nH]1 | 161 nM | 720 nM | IC50 [3]: 518 nM; IC50 (Histone deacetylase 8): 2330 nM
CCC(=O)CCCCC[C@H](NC(=O)[C@@H]1C[C@]12CCN(C)C2)c1ncc(-c2cc3ccccc3nc2OC)[nH]1 | 261 nM | 1140 nM | IC50 [3]: 149 nM
CCC(=O)CCCCC[C@H](NC(=O)[C@H]1CC12CCC(N(C)C)CC2)c1ncc(-c2cc3ccccc3nc2OC)[nH]1 (some centres not stated) | 36 nM | 60 nM | IC50 [3]: 363 nM; IC50 (Histone deacetylase 8): 75 nM
CCC(=O)CCCCC[C@H](NC(=O)[C@H]1CC12CCN(Cc1ccccc1)CC2)c1ncc(-c2cc3ccccc3nc2OC)[nH]1 | 74 nM | 175 nM | 
CCC(=O)CCCCC[C@H](NC(=O)[C@H]1CCC12CCN(CC)CC2)c1ncc(-c2cc3ccccc3nc2OC)[nH]1 | 43 nM | 110 nM | 
CCC(=O)CCCCC[C@H](NC(=O)[C@H]1CC12CCN(CC)CC2)c1nnc(-c2cc3ccccc3nc2OC)[nH]1 | 1230 nM | 1880 nM | IC50 [3]: 95 nM; IC50 (Histone deacetylase 8): 2990 nM
CCC(=O)CCCCC[C@H](NC(=O)[C@@H]1CC12CCC(N(C)C)CC2)c1ncc(-c2cc3ccccc3nc2OC)[nH]1 (some centres not stated) | 441 nM | 1140 nM | IC50 [3]: 759 nM; IC50 (Histone deacetylase 8): 5580 nM

SMILES | EC50 [1] | EC50 [2] | further results
CCC(=O)CCCCC[C@H](NC(=O)[C@@H]1CC12CCOCC2)c1ncc(-c2cc3ccccc3nc2OC)[nH]1 | 647 nM | 5040 nM | 
CCC(=O)CCCCC[C@H](NC(=O)[C@H]1CC12CCN(CC(F)(F)F)CC2)c1ncc(-c2cc3ccccc3nc2OC)[nH]1 | 112 nM | 719 nM | 
CCC(=O)CCCCC[C@H](NC(=O)[C@H]1CC12CCN(CCC(F)(F)F)CC2)c1ncc(-c2cc3ccccc3nc2OC)[nH]1 | 78 nM | 343 nM | 
CCC(=O)CCCCC[C@H](NC(=O)[C@H]1C[C@@]12CCN(C)C2)c1ncc(-c2cc3ccccc3nc2OC)[nH]1 | 73 nM | 321 nM | 
CCC(=O)CCCCC[C@H](NC(=O)[C@H]1CC12CCN(CC)CC2)c1ncc(-c2cc3ccccc3nc2OC)o1 | 111 nM | 151 nM | AUC [4]: 14 µM·h; Cmax [5]: 1430 nM; half-life [6]: 8.6 h; clearance [7]: 15 mL/min/kg; bioavailability [8]: 68.9%
CCC(=O)CCCCC[C@H](NC(=O)[C@H]1CC12CCN(CC1CC1)CC2)c1ncc(-c2cc3ccccc3nc2OC)[nH]1 | 15 nM | 30 nM | 
CCC(=O)CCCCC[C@H](NC(=O)[C@H]1CC12CCN(Cc1cccnc1)CC2)c1ncc(-c2cc3ccccc3nc2OC)[nH]1 | 62 nM | 277 nM | 
CCC(=O)CCCCC[C@H](NC(=O)[C@H]1CC12CCN(C(C)=O)CC2)c1ncc(-c2cc3ccccc3nc2OC)[nH]1 | 1560 nM | 9850 nM | IC50 [3]: 1170 nM; IC50 (Histone deacetylase 8): 2270 nM
CCC(=O)CCCCC[C@H](NC(=O)[C@@H]1CC12CN(C)C2)c1ncc(-c2cc3ccccc3nc2OC)[nH]1 | 74 nM | 287 nM | 
CCCN1CCC2(CC1)C[C@@H]2C(=O)N[C@@H](CCCCCC(=O)CC)c1ncc(-c2cc3ccccc3nc2OC)[nH]1 | 154 nM | 895 nM | 
CCC(=O)CCCCC[C@H](NC(=O)[C@H]1CC12CCN(Cc1ccc(OC)cc1)CC2)c1ncc(-c2cc3ccccc3nc2OC)[nH]1 | 113 nM | 180 nM | 
CCC(=O)CCCCC[C@H](NC(=O)C1CC2(C1)CN(C)C2)c1ncc(-c2cc3ccccc3nc2OC)[nH]1 | 130 nM | 840 nM | 
CCC(=O)CCCCC[C@H](NC(=O)[C@H]1CC12CCN(C)CC2)c1nnc(-c2cc3ccccc3nc2OC)o1 | 689 nM | 691 nM | IC50 (Histone deacetylase 8): 45000 nM
CCC(=O)CCCCC[C@H](NC(=O)C1=NOC2(CCN(C)CC2)C1)c1ncc(-c2cc3ccccc3nc2OC)[nH]1 | 126 nM | 941 nM | IC50 (Histone deacetylase 2): 5.2 nM
CCC(=O)CCCCC[C@H](NC(=O)[C@H]1CC12CN(C)C2)c1ncc(-c2cc3ccccc3nc2OC)[nH]1 | 155 nM | 633 nM | IC50 [3]: 299 nM; IC50 (Histone deacetylase 8): 2020 nM
CCC(=O)CCCCC[C@H](NC(=O)[C@H]1CC12CCCN(C)C2)c1ncc(-c2cc3ccccc3nc2OC)[nH]1 (some centres not stated) | 81 nM | 324 nM | 
CCC(=O)CCCCC[C@H](NC(=O)[C@@H]1CC12CCN(C)CC2)c1ncc(-c2cc3ccccc3nc2OC)[nH]1 | 339 nM | 1370 nM | 
